Test results as given in US20100254922A1, “COSMETIC AND/OR DERMATOLOGICAL COMPOSITION BASED ON N,N'-[…] ACID ESTER(S)” (L'OREAL, priority 2008, published 2010).

Assay: Solubility test of the ester compound in test solvents
Assay type: physicochemical
Method: The solubility tests were performed with the diisopropyl ester of N,N′-bis(benzyl)ethylenediamine-N,N′-diacetic acid.
The test solvent was poured into a beaker, an amount of the ester compound was added with magnetic stirring and the mixture was left to stand for between 1 hour and 24 hours. The mixture was then heated to 50° C. and then cooled to room temperature (25° C.) over 24 hours. The system was then observed to see if the amount of the ester compound introduced recrystallized or remained dissolved.
The amount of ester compound that can be dissolved in the test solvent was determined in this manner. The maximum value corresponds to the amount at and above which the ester compound stops dissolving in the evaluated solvent.

- Weight % of dissolved ester compound (solvent: 2-Ethylhexyl salicylate, 25° C.): 10 Weight %
- Weight % of dissolved ester compound (solvent: 2-Octyldodecanol, 25° C.): 10 Weight %
- Weight % of dissolved ester compound (solvent: Apricot oil, 25° C.): 12 Weight %
- Weight % of dissolved ester compound (solvent: Butylene glycol, 25° C.): 1 Weight %
- Weight % of dissolved ester compound (solvent: Cyclohexasiloxane, 25° C.): 4.7 Weight %
- Weight % of dissolved ester compound (solvent: Cyclopentasiloxane, 25° C.): 4.5 Weight %
- Weight % of dissolved ester compound (solvent: Dimethyl isosorbide, 25° C.): 38 Weight %
- Weight % of dissolved ester compound (solvent: Dipropylene glycol, 25° C.): 10.7 Weight %
- Weight % of dissolved ester compound (solvent: Ethanol, 25° C.): 8 Weight %
- Weight % of dissolved ester compound (solvent: Glycerol, 25° C.): 1 Weight %
- Weight % of dissolved ester compound (solvent: Hexylene glycol, 25° C.): 11.5 Weight %
- Weight % of dissolved ester compound (solvent: Hydrogenated isoparaffin (Parleam from NOF), 25° C.): 9 Weight %
- Weight % of dissolved ester compound (solvent: Isononyl isononanoate, 25° C.): 16 Weight %
- Weight % of dissolved ester compound (solvent: Isopropyl N-lauroylsarcosinate (Eldew SL-205 from Ajinomoto), 25° C.): 18 Weight %
- Weight % of dissolved ester compound (solvent: Isopropyl myristate, 25° C.): 11.5 Weight %
- Weight % of dissolved ester compound (solvent: Isopropyl palmitate, 25° C.): 9 Weight %
- Weight % of dissolved ester compound (solvent: Phenyl trimethicone (Dow Corning 556), 25° C.): 12 Weight %
- Weight % of dissolved ester compound (solvent: Propylene glycol, 25° C.): 1 Weight %
- Weight % of dissolved ester compound (solvent: Squalane, 25° C.): 9 Weight %
- Weight % of dissolved ester compound (solvent: Water, heated to 50° C., cooled to room temperature (25° C.) over 24 hours): Insoluble
SMILES: CC(C)OC(=O)CN(CCN(CC(=O)OC(C)C)Cc1ccccc1)Cc1ccccc1 [diisopropyl ester of N,N′-bis(benzyl)ethylenediamine-N,N′-diacetic acid]
